Results as given in patent publication US20070179060A1, “6-(Poly-substituted aryl)-4-aminopicolinates and their use as herbicides” (priority 2006, published 2007).
Values belong to the molecule of their own block, whether it stands above or below them.

Tests used:
[1] = test system: redroot pigweed (Amaranthus retroflexus); assay: Postemergence herbicidal activity; type: in vivo; details: post-emergent, 140 g ai/ha, after 14 days; for pest or weed control at 140 g/ha: Amaranthus retroflexus, post-emergence, 336 h, read-out: % Control AMARE
Protocol: (§1) Seeds or nutlets of the desired test plant species were planted in Sun Gro MetroMix® 306 planting mixture, which typically has a pH of 6.0 to 6.8 and an organic matter content of about 30 percent, in plastic pots with a surface area of 64 square centimeters. When required to ensure good germination and healthy plants, a fungicide treatment and/or other chemical or physical treatment was applied. The plants were grown for 7-21 days in a greenhouse with an approximate 15 hour photoperiod which was maintained at about 23-29° C. during the day and 22-28° C. during the night. Nutrients and water were added on a regular basis and supplemental lighting was provided with overhead metal halide 1000-Watt lamps as necessary. The plants were employed for testing when they reached the first or second true leaf stage. […] The concentrated stock solutions obtained were diluted with 20 mL of an aqueous mixture containing acetone, water, isopropyl alcohol, DMSO, Atplus 411F crop oil concentrate, and Triton® X-155 surfactant in a 48.5:39:10:1.5:1.0:0.02 v/v ratio to obtain spray solutions containing the highest application rates. […] Compound requirements are based upon a 12 mL application volume at a rate of 187 L/ha. Formulated compounds were applied to the plant material with an overhead Mandel track sprayer equipped with a […] nozzles calibrated to deliver 187 L/ha over an application area of 0.503 square meters at a spray height of 18 inches (43 cm) above the average plant canopy height. Control plants were sprayed in the same manner with the solvent blank. The treated plants and control plants were placed in a greenhouse as described above and watered by sub-irrigation to prevent wash-off of the test compounds. […] By applying the well-accepted probit analysis as described by J. Berkson in Journal of the American Statistical […], 48, 565 (1953) and by D.

[2] = test system: lambsquarter (Chenopodium album); assay: Postemergence herbicidal activity; type: in vivo; details: post-emergent, 140 g ai/ha, after 14 days; for pest or weed control at 140 g/ha: Chenopodium album, post-emergence, 336 h, read-out: % Control CHEAL
Protocol: as §1

[3] = test system: velvetleaf (Abutilon theophrasti); assay: Postemergence herbicidal activity; type: in vivo; details: post-emergent, 140 g ai/ha, after 14 days; for pest or weed control at 140 g/ha: Abutilon theophrasti, post-emergence, 336 h, read-out: % Control ABUTH
Protocol: as §1

[4] = test system: redroot pigweed (Amaranthus retroflexus); assay: Preemergence herbicidal activity; type: in vivo; details: pre-emergent, 140 g ai/ha, after 20-22 days; for pest or weed control at 140 g/ha: Amaranthus retroflexus, pre-emergence, 480 h, read-out: % Control AMARE
Description: (§2) Seeds of the desired test plant species were planted in a soil matrix prepared by mixing a loam soil (43 percent silt, 19 percent clay, and 38 percent sand, with a pH of about 8.1 and an organic matter content of about 1.5 percent) and sand in a 70 to 30 ratio. The soil matrix was contained in plastic pots with a surface area of 113 square centimeters. When required to ensure good germination and healthy plants, a fungicide treatment and/or other chemical or physical treatment was applied. […] Compound requirements are based upon a 12 mL application volume at a rate of 187 L/ha. Formulated compounds were applied to the plant material with an overhead Mandel track sprayer equipped with a […] nozzles calibrated to deliver 187 L/ha over an application area of 0.503 square meters at a spray height of 18 inches (43 cm) above the soil surface. Control plants were sprayed in the same manner with the solvent blank. The treated pots and control pots were placed in a greenhouse maintained with an approximate 15 hour photoperiod and temperatures of about 23-29° C. during the day and 22-28° C. during the night. Nutrients and water were added on a regular basis and supplemental lighting was provided with overhead metal halide 1000-watt lamps as necessary. The water was added by top-irrigation.

[5] = test system: lambsquarter (Chenopodium album); assay: Preemergence herbicidal activity; type: in vivo; details: pre-emergent, 140 g ai/ha, after 20-22 days; for pest or weed control at 140 g/ha: Chenopodium album, pre-emergence, 480 h, read-out: % Control CHEAL
Description: as §2

[6] = test system: velvetleaf (Abutilon theophrasti); assay: Preemergence herbicidal activity; type: in vivo; details: pre-emergent, 140 g ai/ha, after 20-22 days; for pest or weed control at 140 g/ha: Abutilon theophrasti, pre-emergence, 480 h, read-out: % Control ABUTH
Description: as §2

SMILES: CCOc1c(Cl)cc(F)c(-c2cc(N)c(Cl)c(C(=O)OC)n2)c1F [Compound 59, 4-Amino-3-chloro-6-(4-chloro-2,6-difluoro-3-ethoxyphenyl)pyridine-2-carboxylic acid, methyl ester]
pest or weed control at 140 g/ha [1]: 90%
pest or weed control at 140 g/ha [2]: 90%
pest or weed control at 140 g/ha [3]: 100%
pest or weed control at 140 g/ha [4]: 100%
pest or weed control at 140 g/ha [5]: 60%
pest or weed control at 140 g/ha [6]: 90%

SMILES: COC(=O)c1nc(-c2ccc(Cl)c(C(F)F)c2Cl)cc(N)c1Cl [Compound 62, 4-Amino-3-chloro-6-(2,4-dichloro-3-difluoromethylphenyl)pyridine-2-carboxylic acid, methyl ester]
pest or weed control at 140 g/ha [1]: 100%
pest or weed control at 140 g/ha [2]: 100%
pest or weed control at 140 g/ha [3]: 100%
pest or weed control at 140 g/ha [4]: 100%
pest or weed control at 140 g/ha [5]: 100%
pest or weed control at 140 g/ha [6]: 100%

SMILES: COC(=O)c1nc(-c2ccc(Cl)c(C(C)F)c2Cl)cc(N)c1Cl (stereo not shown) [Compound 63]
% Control AMARE [1]: 100%
% Control CHEAL [2]: 100%
% Control ABUTH [3]: 100%
% Control AMARE [4]: 100%
% Control CHEAL [5]: 100%
% Control ABUTH [6]: 100%

SMILES: COC(=O)c1nc(-c2ccc(Cl)c(C(=O)C(F)(F)F)c2F)cc(N)c1Cl [Compound 82, 4-Amino-3-chloro-6-[4-chloro-2-fluoro-3-(2,2,2-trifluoroacetyl)phenyl]pyridine-2-carboxylic acid, methyl ester]
pest or weed control at 140 g/ha [1]: 100%
pest or weed control at 140 g/ha [2]: 95%
pest or weed control at 140 g/ha [3]: 100%
pest or weed control at 140 g/ha [4]: 100%
pest or weed control at 140 g/ha [5]: 100%
pest or weed control at 140 g/ha [6]: 90%

SMILES: COC(=O)c1nc(-c2c(F)cc(C#N)c(OC)c2F)cc(N)c1Cl [Compound 95, 4-amino-3-chloro-6-(4-cyano-2,6-difluoro-3-methoxyphenyl)pyridine-2-carboxylic acid, methyl ester]
pest or weed control at 140 g/ha [1]: 85%
pest or weed control at 140 g/ha [2]: 90%
pest or weed control at 140 g/ha [3]: 100%
pest or weed control at 140 g/ha [4]: 90%
pest or weed control at 140 g/ha [5]: 90%
pest or weed control at 140 g/ha [6]: 90%

SMILES: Nc1cc(-c2ccc(Cl)c(OCC(F)F)c2F)nc(C(=O)O)c1Cl [Compound 96, 4-Amino-3-chloro-6-(4-chloro-2-fluoro-3-(2,2-difluoroethoxy)phenyl)pyridine-2-carboxylic acid]
pest or weed control at 140 g/ha [1]: 100%
pest or weed control at 140 g/ha [2]: 90%
pest or weed control at 140 g/ha [3]: 50%
pest or weed control at 140 g/ha [4]: 70%
pest or weed control at 140 g/ha [5]: 40%
pest or weed control at 140 g/ha [6]: 20%

SMILES: Cc1c(Cl)ccc(-c2cc(N)c(Cl)c(C(=O)O)n2)c1Cl [Compound 98, 4-Amino-3-chloro-6-(2,4-dichloro-3-methylphenyl)pyridine-2-carboxylic acid]
pest or weed control at 140 g/ha [1]: 70%
pest or weed control at 140 g/ha [2]: 80%
pest or weed control at 140 g/ha [3]: 90%
melting point: 170 to 172 °C (dec.)

SMILES: Nc1cc(-c2ccc(Cl)c(C(F)F)c2F)nc(C(=O)O)c1Cl [Compound 106, 4-Amino-3-chloro-6-(4-chloro-2-fluoro-3-difluoromethylphenyl)pyridine-2-carboxylic acid]
pest or weed control at 140 g/ha [1]: 100%
pest or weed control at 140 g/ha [2]: 90%
pest or weed control at 140 g/ha [3]: 90%
melting point: 182 to 183 °C (dec.)

SMILES: CN(C)c1cc(-c2cc(N)c(Cl)c(C(=O)O)n2)c(F)cc1Cl [Compound 111, 4-Amino-3-chloro-6-(4-chloro-5-dimethyamino-2-fluorophenyl)pyridine-2-carboxylic acid]
% Control AMARE [4]: 100%
% Control CHEAL [5]: 100%
% Control ABUTH [6]: 35%

SMILES: CN(C)c1c(Cl)ccc(-c2cc(N)c(Cl)c(C(=O)O)n2)c1F [Compound 112, 4-Amino-3-chloro-6-(4-chloro-3-dimethyamino-2-fluorophenyl)pyridine-2-carboxylic acid]
% Control AMARE [1]: 100%
% Control CHEAL [2]: 100%
% Control ABUTH [3]: 100%
% Control AMARE [4]: 100%
% Control CHEAL [5]: 100%
% Control ABUTH [6]: 100%

Further lines, with some results ahead:

melting point: 177 to 178 °C (dec.)
SMILES: COc1c(C(F)(F)F)ccc(-c2cc(N)c(Cl)c(C(=O)O)n2)c1F [Compound 107, 4-Amino-3-chloro-6-(2-fluoro-3-methoxy-4-trifluoromethylphenyl)pyridine-2-carboxylic acid]
pest or weed control at 140 g/ha [1]: 80%
pest or weed control at 140 g/ha [2]: 90%
pest or weed control at 140 g/ha [3]: 100%

melting point: 177 to 178 °C
SMILES: CN(C)c1c(Cl)ccc(-c2cc(N)c(Cl)c(C(=O)O)n2)c1Cl [Compound 117, 4-Amino-3-chloro-6-[2,4-dichloro-3-(dimethylamino)phenyl]pyridine-2-carboxylic acid]
pest or weed control at 140 g/ha [1]: 100%
pest or weed control at 140 g/ha [2]: 100%
pest or weed control at 140 g/ha [3]: 100%

melting point: 185 to 186 °C
SMILES: CNc1c(Cl)ccc(-c2cc(N)c(Cl)c(C(=O)O)n2)c1F [Compound 118, 4-Amino-3-chloro-6-[4-chloro-2-fluoro-3-(methylamino)phenyl]pyridine-2-carboxylic acid]
pest or weed control at 140 g/ha [1]: 100%
pest or weed control at 140 g/ha [2]: 100%
pest or weed control at 140 g/ha [3]: 100%

melting point: 178 to 179 °C
SMILES: COc1c(C)ccc(-c2cc(N)c(Cl)c(C(=O)O)n2)c1F [Compound 119, 4-Amino-3-chloro-6-(2-fluoro-3-methoxy-4-methylphenyl)pyridine-2-carboxylic acid]
pest or weed control at 140 g/ha [1]: 100%
pest or weed control at 140 g/ha [2]: 95%
pest or weed control at 140 g/ha [3]: 100%

melting point: 182 to 183 °C (dec.)
SMILES: Nc1cc(-c2ccc(Cl)c(C(F)F)c2Cl)nc(C(=O)O)c1Cl [Compound 126, 4-Amino-3-chloro-6-(2,4-dichloro-3-difluoromethylphenyl)pyridine-2-carboxylic acid]
pest or weed control at 140 g/ha [1]: 100%
pest or weed control at 140 g/ha [2]: 100%
pest or weed control at 140 g/ha [3]: 90%

melting point: 175 to 176 °C (dec.)
SMILES: Nc1cc(-c2ccc(Cl)c(C(F)C(F)(F)F)c2F)nc(C(=O)O)c1Cl (stereo not shown) [Compound 129, 4-Amino-3-chloro-6-[4-chloro-2-fluoro-3-(1,2,2,2-tetrafluoroethyl)-phenyl)pyridine-2-carboxylic acid]
pest or weed control at 140 g/ha [1]: 95%
pest or weed control at 140 g/ha [2]: 90%
pest or weed control at 140 g/ha [3]: 85%

melting point: 165 to 167 °C (dec.)
SMILES: CCC(F)c1c(Cl)ccc(-c2cc(N)c(Cl)c(C(=O)OC)n2)c1F (stereo not shown) [Compound 130, 4-Amino-3-chloro-6-[4-chloro-2-fluoro-3-(1-fluoropropyl)phenyl]pyridine-2-carboxylic acid, methyl ester]
pest or weed control at 140 g/ha [1]: 95%
pest or weed control at 140 g/ha [2]: 95%
pest or weed control at 140 g/ha [3]: 80%

melting point: 179 °C (dec.)
SMILES: Nc1cc(-c2ccc(Cl)c(OC(F)F)c2F)nc(C(=O)O)c1Cl [Compound 134, 4-Amino-3-chloro-6-(4-chloro-3-difluoromethoxy-2-fluorophenyl)pyridine-2-carboxylic acid]
pest or weed control at 140 g/ha [1]: 100%
pest or weed control at 140 g/ha [2]: 90%
pest or weed control at 140 g/ha [3]: 95%
